The nature of the data set: Saturated concentration of hydrocortisone acetate in propylene glycol. It counts as physicochemical. To be noted: saturated solution in propylene glycol (Sample A).

Here are results for one molecule from US5631248A, “Supersaturated topical compositions” (priority 1992, dated 1997).

Take `CC(=O)OCC(=O)[C@@]1(O)CC[C@H]2[C@@H]3CCC4=CC(=O)CC[C@]4(C)[C@H]3[C@@H](O)C[C@@]21C` [hydrocortisone acetate]: the “concentration of saturated solution in propylene glycol” value was 0.10 % w/w.
